According to patent publication US20240299376A1, “METHOD OF TREATING A CONDITION USING A […] EFFECTIVE DOSE OF 1-(1-OXO-1,2-DIHYDROISOQUINOLIN-5-YL)-5-(TRIFLUOROMETHYL)-N-(2-(TRIFLUOROMETHYL)PYRIDIN-4-YL)-1H-PYRAZOLE-4-CARBOXAMIDE” (Janssen Pharmaceutica NV, priority 2021, published 2024):

Key:
[1] = Serum concentration after 28 days of oral dosing in male OCI-LY3 tumor-bearing NSG mice; assay type: in vivo; settings: mouse, mean; for concentration at 1 h: 1 h post last dose; for concentration at 2 h: 2 h post last dose; for concentration at 4 h: 4 h post last dose; for concentration at 8 h: 8 h post last dose; for concentration at 12 h: 12 h post last dose; for concentration at 0.25 h: 0.25 h post last dose
Description: For study 3, animals were randomly assigned into treatment groups, when the OCI-LY3 mean tumor volume was 164 mm^3 (Day 32 post-tumor cell implantation). Treatment was initiated on the day of randomization (Day 32). After 28 days of treatment on Day 60, serum was collected at 2, 4, and 12 hours post last dose for the bid treated groups or 2, 4 and 24 hours post last dose for qd treated groups in cohorts of 5 mice. Blood was collected from the retro-orbital sinus and submitted for bioanalytical analysis.
Serum samples were collected at 1, 2, 4, 8, and 12 hours post dose (for twice-daily-treated animals) or 24 hours (for once-daily-treated animals).

[2] = test system: OCI-LY3 cells; experiment: Whole-gene transcriptomics; assay type: cell-based, human; settings: OCI-LY3 (Myd88 and CARD11 mutations)
[3] = test system: U2932 (A20/TAK1 mut); experiment: Anti-proliferative activity, DLBCL cell line panel; assay type: cell-based; settings: Homo sapiens, U2932, 192 h; antiproliferation after 8 days of treatment
[4] = test system: HLY-1 (Myd88/CARD11/homoz A20 mut); experiment: Anti-proliferative activity, DLBCL cell line panel; assay type: cell-based; settings: 192 h; antiproliferation after 8 days of treatment
[5] = test system: primary T cells; experiment: Treg/Teff ratio after CD3/28 stimulation of primary T cells (flow cytometry); assay type: cell-based, human; settings: compound added 24 hours after CD3/28 stimulation, for 72 hours
Text: The role of MALT1 in the immunologic activity of T cells was investigated by looking at the proportions of Treg and effector T cells (Teff). These cells are in a dynamic balance and their ratio correlates with the effectiveness of protective immunity. An accumulation of Tregs, resulting in a higher Treg/Teff ratio within tumor tissue, is associated with worse prognosis in cancer. Whiteside T L. What are regulatory T cells (Treg) regulating in cancer and why? Semin Cancer Biol. 2012, 22, 327-34. In vitro, activation of T cells through TCR stimulation increases the Treg/Teff ratio by increasing the Treg population, as defined by CD4^+CD25^hiFOXP3^hi.
After 24 hours of pre-stimulation, the compound was added for 72 hours. Alternatively, the compound was added together with the CD3/28 stimulus for 96 hours. Cells were stained for flow cytometric analysis (BD Facs Verse). After gating on the living singlet population, the proportions of CD8^+ Teff and CD4^+CD25^hiFOXP3^hi Treg subpopulations were analysed.

[6] = Oral bioavailability, 5 mg/kg solution in PEG400; assay type: in vivo, mice, rats, dogs, and monkeys; settings: plasma, oral 5 mg/kg
Text: (Data for mice, rats, and monkeys are not shown.)

O=C(Nc1ccnc(C(F)(F)F)c1)c1cnn(-c2cccc3c(=O)[nH]ccc23)c1C(F)(F)F [Compound A, 1-(1-oxo-1,2-dihydroisoquinolin-5-yl)-5-(trifluoromethyl)-N-[2-(trifluoromethyl)pyridin-4-yl]-1H-pyrazole-4-carboxamide]
concentration at 1 h ([1]; 1 mg/kg BID PO 28 days): 550 ng/mL | concentration at 2 h ([1]; 1 mg/kg BID PO 28 days): 449 ng/mL | concentration at 4 h ([1]; 1 mg/kg BID PO 28 days): 526 ng/mL | concentration at 8 h ([1]; 1 mg/kg BID PO 28 days): 721 ng/mL | concentration at 12 h ([1]; 1 mg/kg BID PO 28 days): 307 ng/mL | concentration at 0.25 h ([1]; 3 mg/kg BID PO 28 days): 1020 ng/mL | concentration at 1 h ([1]; 3 mg/kg BID PO 28 days, N = 2): 1940 ng/mL | concentration at 2 h ([1]; 3 mg/kg BID PO 28 days): 1560 ng/mL | concentration at 4 h ([1]; 3 mg/kg BID PO 28 days): 1150 ng/mL | concentration at 8 h ([1]; 3 mg/kg BID PO 28 days, N = 2): 2680 ng/mL | concentration at 12 h ([1]; 3 mg/kg BID PO 28 days): 1020 ng/mL | concentration at 0.25 h ([1]; 10 mg/kg BID PO 28 days): 4050 ng/mL | concentration at 1 h ([1]; 10 mg/kg BID PO 28 days): 5080 ng/mL | concentration at 2 h ([1]; 10 mg/kg BID PO 28 days): 4600 ng/mL | concentration at 4 h ([1]; 10 mg/kg BID PO 28 days): 6250 ng/mL | concentration at 8 h ([1]; 10 mg/kg BID PO 28 days): 5500 ng/mL | concentration at 12 h ([1]; 10 mg/kg BID PO 28 days): 4170 ng/mL | concentration at 0.25 h ([1]; 30 mg/kg BID PO 28 days): 5970 ng/mL | concentration at 1 h ([1]; 30 mg/kg BID PO 28 days): 11400 ng/mL | concentration at 2 h ([1]; 30 mg/kg BID PO 28 days): 12300 ng/mL | concentration at 4 h ([1]; 30 mg/kg BID PO 28 days): 10400 ng/mL | concentration at 8 h ([1]; 30 mg/kg BID PO 28 days): 14700 ng/mL | concentration at 12 h ([1]; 30 mg/kg BID PO 28 days): 9000 ng/mL | concentration at 1 h ([1]; 60 mg/kg QD PO 28 days): 9270 ng/mL | concentration at 2 h ([1]; 60 mg/kg QD PO 28 days): 16000 ng/mL | concentration at 4 h ([1]; 60 mg/kg QD PO 28 days): 11400 ng/mL | concentration at 24 h ([1]; 60 mg/kg QD PO 28 days, 24 h post last dose): 2510 ng/mL | concentration at 0.25 h ([1]; 100 mg/kg BID PO 28 days): 16500 ng/mL | concentration at 1 h ([1]; 100 mg/kg BID PO 28 days): 21200 ng/mL | concentration at 2 h ([1]; 100 mg/kg BID PO 28 days): 21600 ng/mL | concentration at 4 h ([1]; 100 mg/kg BID PO 28 days): 12800 ng/mL | concentration at 8 h ([1]; 100 mg/kg BID PO 28 days): 20500 ng/mL | concentration at 12 h ([1]; 100 mg/kg BID PO 28 days): 10300 ng/mL | gene expression changes [2]: clear dose-dependent gene expression changes | IC50 [3]: 3.9 µM | IC50 [4]: 8.8 µM | effect on Treg and Teff populations [5]: did not influence the Treg and Ter populations | bioavailability ([6]; Sprague-Dawley, rat, rats): 51.2% | bioavailability ([6]; beagle, dog, dogs): 100% | bioavailability ([6]; mouse, rat, dog, monkey, all species (mice, rats, dogs, monkeys)): > 50%
